Measured values: US4301177A, “(3-Methyl-2-butenyl)propanedioic acid mono (1,2-diphenylhydrazide) and salts thereof” (Istituto de Angeli S.p.A., priority 1979, dated 1981)
Counter-ions that a name gives are not always drawn.

Columns and labels:
[1] = tested on: rats; assay: Antipyretic activity, fever induced by brewer's yeast in rats (Table V); format: in vivo, male Sprague-Dawley rats
Protocol: (§1) In the present study the test compounds were administered perorally by means of a stomach tube as an aqueous suspension in 5% acacia gum at a constant volume of 10 ml/kg to male Swiss mice and male Sprague-Dawley rats. Control rats and mice were given a corresponding volume of the aqueous suspension medium. The results were statistically evaluated by Dunnett's test (C. V. Dunnett.: J.A. Stat. Ass., 40, 1096, 1955).
The antipyretic activity was investigated in rats by the method of Niemegeers et al. (see Arzneim.Forsch. 25, 1519, 1975). The rectal temperature was measured immediately before and 4 hours after the subcutaneous injection of 1 ml/100 g body weight of a 15% brewer's yeast suspension in 1% acacia gum.
The test compound was administered orally to groups of 5 different rats per dose 4 hours after the yeast injection. The rectal temperature was measured 0.5, 1, 1.5, 2, 2.5, 3 and 19 hours after treatment.
(§2) Average values of the temperatures obtained in the treated rats were compared with those of control rats.

[2] = tested on: rats; assay: Effect on arthritis induced in rats by Freund's adjuvant (Table II); format: in vivo, male Sprague-Dawley rats; conditions: day 20
[3] = tested on: mice; assay: Analgesic activity, hot plate test in mice (Table III); format: in vivo, male Swiss mice
Protocol: as §1
The analgesic activity was evaluated in mice by the hot plate test according to Janssen and Jageneau (J.Pharm.Pharmac., 9, 381, 1957).
The plate temperature was kept constant at 55° C.; the reaction time was determined before and 30, 60, 90 and 120 minutes after oral administration of the test compound. Average values after administration of the test compound were compared to those obtained before treatment.

[4] = tested on: rats; assay: Analgesic-anti-inflammatory activity, Randall and Selitto, brewer's yeast inflamed paw in rats (Table IV); format: in vivo, male Sprague-Dawley rats; conditions: for Analgesic Index: ratio to controls (1.0)
Protocol: as §1
4. Analgesic-anti-inflammatory activity
The analgesic-anti-inflammatory activity was evaluated in rats by the method of Randall and Selitto (Arch. Int. Pharmacodyn., 111, 409, 1957), using an analgesimeter to measure the minimum load that must be applied to a rat's hind paw to elicit a painful stimulus.
Both the controls and the experimental rats were injected into the right hind paw with 0.1 ml of 20% brewer's yeast in sterile saline immediately before the administration of the test compound.
The volume of the inflamed right hind paw was measured 1, 2 and 4 hours after the administration of the test compound.
The analgesic-anti-inflammatory activity was evaluated using an "analgesic index" expressed as a ratio between the sum of the average weights (grams) necessary to provoke a painful stimulus at different times in treated and control animals.

[5] = tested on: rats; assay: Ulcerogenic effect, gastric lesions in rats (Table VIII); format: in vivo, male Sprague-Dawley rats; conditions: for Body weight, mean ± standard deviation / % animals with gastric lesions / Ulcerogenic Index: single dose; for % animals with gastric lesions / Ulcerogenic Index: 16 h
Protocol: as §1
The ulcerogenic effect was determined in rats by the method of Niemegeers et al. (Arzneimittel-Forschung 25, 1537, 1975). A single oral dose was administered to groups of 15 rats fasted for 9 hours before treatment and kept fasting throughout the whole experimental period. The animals were sacrificed 16 hours after treatment; the severity of lesions was scored according to an arbitrary scale ranging from + to ++++. For each group of rats, an ulcerogenic index was calculated according to Pauls et al., (Gastroenterology 8, 774, 1947).

[6] = tested on: rats; assay: Effect on normal temperature of rats (Table VI); format: in vivo, male Sprague-Dawley rats
Protocol: as §1
6. Effect on normal temperature of rats
The rectal temperature was measured at 30-minute intervals before and after administration of the test compound, that is, at -1.5, -1, -0.5, 0.5, 1, 1.5 and 2 hours, using groups of 10 rats each for each dosage level.
as §2

CC(C)=CCC(C(=O)O)C(=O)N(Nc1ccccc1)c1ccccc1 (stereo not drawn) [A, Calcium salt of (3-methyl-2-butenyl)propanedioic acid mono(1,2-diphenylhydrazide)]
Rectal temperature ([1]; 40 mg/kg oral, 0 h (4 h after yeast, before treatment)): 38.00 °C | Rectal temperature ([1]; 40 mg/kg oral, 0.5 h): 37.51 °C | Rectal temperature ([1]; 40 mg/kg oral, 1 h): 38.41 °C | Rectal temperature ([1]; 40 mg/kg oral, 1.5 h): 38.24 °C | Rectal temperature ([1]; 40 mg/kg oral, 2 h): 38.23 °C | Rectal temperature ([1]; 40 mg/kg oral, 2.5 h): 38.28 °C | Rectal temperature ([1]; 40 mg/kg oral, 3 h): 38.10 °C | Rectal temperature ([1]; 40 mg/kg oral, 19 h): 37.51 °C | Rectal temperature ([1]; 40 mg/kg oral, -4 h (before yeast)): 37.00 °C | Rectal temperature ([1]; 80 mg/kg oral, 0 h (4 h after yeast, before treatment)): 38.14 °C | Rectal temperature ([1]; 80 mg/kg oral, 0.5 h): 37.16 °C | Rectal temperature ([1]; 80 mg/kg oral, 1 h): 37.47 °C | Rectal temperature ([1]; 80 mg/kg oral, 1.5 h): 37.54 °C | Rectal temperature ([1]; 80 mg/kg oral, 2 h): 37.57 °C | Rectal temperature ([1]; 80 mg/kg oral, 2.5 h): 37.47 °C | Rectal temperature ([1]; 80 mg/kg oral, 3 h): 37.47 °C | Rectal temperature ([1]; 80 mg/kg oral, 19 h): 36.75 °C | Rectal temperature ([1]; 80 mg/kg oral, -4 h (before yeast)): 37.06 °C | Rectal temperature ([1]; 160 mg/kg oral, 0 h (4 h after yeast, before treatment)): 38.06 °C | Rectal temperature ([1]; 160 mg/kg oral, 0.5 h): 37.14 °C | Rectal temperature ([1]; 160 mg/kg oral, 1 h): 37.20 °C | Rectal temperature ([1]; 160 mg/kg oral, 1.5 h): 37.62 °C | Rectal temperature ([1]; 160 mg/kg oral, 2 h): 37.67 °C | Rectal temperature ([1]; 160 mg/kg oral, 2.5 h): 37.58 °C | Rectal temperature ([1]; 160 mg/kg oral, 3 h): 37.76 °C | Rectal temperature ([1]; 160 mg/kg oral, 19 h): 37.86 °C | Rectal temperature ([1]; 160 mg/kg oral, -4 h (before yeast)): 36.46 °C | % Inhibition ([2]; 40 mg/kg oral): 34% | % Inhibition ([2]; 80 mg/kg oral): 35% | % Inhibition ([2]; 160 mg/kg oral): 45% | Reaction time ([3]; 50 mg/kg oral, 0 (before administration)): 15.40 ± 2.76 s | Reaction time ([3]; 50 mg/kg oral, 30 min): 16.70 ± 3.86 s | Reaction time ([3]; 100 mg/kg oral, 0 (before administration)): 12.90 ± 3.21 s | Reaction time ([3]; 200 mg/kg oral, 0 (before administration)): 14.40 ± 2.95 s | analgesic activity in the hot plate test compared with bumadizon calcium ([3]; summary, Table III): higher, begins earlier and lasts longer than that of bumadizon calcium | Mean of the weights eliciting painful stimulus ([4]; 40 mg/kg oral, 1 h): 196.2 grams | Mean of the weights eliciting painful stimulus ([4]; 40 mg/kg oral, 2 h): 128.8 grams | Mean of the weights eliciting painful stimulus ([4]; 40 mg/kg oral, 4 h): 95.0 grams | Analgesic Index ([4]; 40 mg/kg oral): 1.49 | Mean of the weights eliciting painful stimulus ([4]; 80 mg/kg oral, 1 h): 192.6 grams | Mean of the weights eliciting painful stimulus ([4]; 80 mg/kg oral, 2 h): 147.6 grams | Mean of the weights eliciting painful stimulus ([4]; 80 mg/kg oral, 4 h): 146.2 grams | Analgesic Index ([4]; 80 mg/kg oral): 1.72 | Mean of the weights eliciting painful stimulus ([4]; 160 mg/kg oral, 1 h): 245.0 grams | Mean of the weights eliciting painful stimulus ([4]; 160 mg/kg oral, 2 h): 171.2 grams | Mean of the weights eliciting painful stimulus ([4]; 160 mg/kg oral, 4 h): 143.8 grams | Analgesic Index ([4]; 160 mg/kg oral): 1.98 | Body weight, mean ± standard deviation ([5]; 40 mg/kg oral): 206.67 ± 9.00 grams | % animals with gastric lesions ([5]; 40 mg/kg oral): 0% | Ulcerogenic Index ([5]; 40 mg/kg oral): 0 | Body weight, mean ± standard deviation ([5]; 80 mg/kg oral): 205.33 ± 6.40 grams | % animals with gastric lesions ([5]; 80 mg/kg oral): 0% | Ulcerogenic Index ([5]; 80 mg/kg oral): 0 | Body weight, mean ± standard deviation ([5]; 160 mg/kg oral): 212.67 ± 12.23 grams | % animals with gastric lesions ([5]; 160 mg/kg oral): 0% | Ulcerogenic Index ([5]; 160 mg/kg oral): 0 | Body weight, mean ± standard deviation ([5]; 320 mg/kg oral): 218.67 ± 6.40 grams | % animals with gastric lesions ([5]; 320 mg/kg oral): 46.66% | Ulcerogenic Index ([5]; 320 mg/kg oral): 71.38 | ulcerogenic effect compared with prior art compound ([5]; summary, Table VIII): less ulcerogenic | Rectal temperature (normal rats) ([6]; 40 mg/kg oral, 0.5 h): 35.96 °C | Rectal temperature (normal rats) ([6]; 40 mg/kg oral, 1 h): 36.28 °C | Rectal temperature (normal rats) ([6]; 40 mg/kg oral, 1.5 h): 36.34 °C | Rectal temperature (normal rats) ([6]; 40 mg/kg oral, 2 h): 36.54 °C | Rectal temperature (normal rats) ([6]; 40 mg/kg oral, -0.5 h (before administration)): 36.20 °C | Rectal temperature (normal rats) ([6]; 40 mg/kg oral, -1 h (before administration)): 36.62 °C | Rectal temperature (normal rats) ([6]; 40 mg/kg oral, -1.5 h (before administration)): 36.81 °C | Rectal temperature (normal rats) ([6]; 80 mg/kg oral, 0.5 h): 36.25 °C | Rectal temperature (normal rats) ([6]; 80 mg/kg oral, 1 h): 36.12 °C | Rectal temperature (normal rats) ([6]; 80 mg/kg oral, 1.5 h): 36.14 °C | Rectal temperature (normal rats) ([6]; 80 mg/kg oral, 2 h): 36.15 °C | Rectal temperature (normal rats) ([6]; 80 mg/kg oral, -0.5 h (before administration)): 36.33 °C | Rectal temperature (normal rats) ([6]; 80 mg/kg oral, -1 h (before administration)): 36.42 °C | Rectal temperature (normal rats) ([6]; 80 mg/kg oral, -1.5 h (before administration)): 36.75 °C | Rectal temperature (normal rats) ([6]; 160 mg/kg oral, 0.5 h): 35.71 °C | Rectal temperature (normal rats) ([6]; 160 mg/kg oral, 1 h): 35.85 °C | Rectal temperature (normal rats) ([6]; 160 mg/kg oral, 1.5 h): 35.91 °C | Rectal temperature (normal rats) ([6]; 160 mg/kg oral, 2 h): 35.86 °C | Rectal temperature (normal rats) ([6]; 160 mg/kg oral, -0.5 h (before administration)): 36.22 °C | Rectal temperature (normal rats) ([6]; 160 mg/kg oral, -1 h (before administration)): 36.32 °C | Rectal temperature (normal rats) ([6]; 160 mg/kg oral, -1.5 h (before administration)): 37.01 °C
